Test [1] concerns the target T1, human BRD4 bromodomain II (Homo sapiens, UniProt O60885).
T1 construct: human BRD4 bromodomain II [based on Genbank NM_058243, residues 349-460]; host or cells: E. coli
Kind of test: Bromodomain binding assay (AlphaScreen), BRD4 BDII. Summed up: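 AlphaScreen competition with biotinylated H4 peptide (aa 1-21, K5/K8/K12/K16Ac), using nickel-chelate acceptor and streptavidin donor beads. Targets were His6-BRD4 BDI (44-170) or BDII (349-460), with a 30 min compound preincubation over a 10-point 3-fold series. IC50 was fitted from percentage peptide binding.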
A general note: Alpha assays give light when donor and acceptor beads are brought close together.

Test [2] deals with human SKM-1 acute myeloid leukemia cells. Kind of test: SKM-1 antiproliferation cell-based assay (ATPlite). The conditions noted are these: Homo sapiens. Summed up: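 Log-phase cells in RPMI 1640/15% FBS were seeded at 34722 cells/mL and exposed for 4 days to nine-concentration DMSO serial dilutions in triplicate. Viability was read as ATP luminescence (ATPlite 1step), and IC50 values came from variable-slope non-linear regression.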
(In general: ATP-based viability assays read luminescence as a measure of living cells.)

The mark [3] stands for this setting: AlphaScreen assay, Table C2, read-out: BRD4 BDII IC50.
[4] abbreviates: SKM-1, 96 h, SKM-1 antiproliferation assay, 4 days, Table C2.
The mark [5] stands for this setting: BRD4 BDII AlphaScreen assay, read-out: BRD4 BD2 IC50.
Setting [6] is: SKM-1, SKM-1 antiproliferation assay.

Read-outs that look alike come from different tables or passages of the source.

A word on the IC50: it is the concentration at which inhibition is half-maximal. For orientation: GI50 means the concentration giving 50% growth inhibition. As for `Cn1ccn(-c2ccc(-c3cc(F)cc(-c4ccnc(N5C[C@@H](O)[C@@H](O)C5)c4)c3O)cc2Cl)c1=O` [Example 739, 1-(3-chloro-3′-(2-((3S,4R)-3,4-dihydroxypyrrolidin-1-yl)pyridin-4-yl)-5′-fluoro-2′-hydroxy-[1,1′-biphenyl]-4-yl)-3-methyl-1H-imidazol-2(3H)-one], the IC50 in test [1] (setting [3]) was 0.01 to 1 nM. In test [2] (setting [4]), the GI50 lay within 0.3 to 30 nM.
For `C[C@@H]1CN(c2cc(-c3cc(F)cc(-c4ccc(-n5ccn(C)c5=O)c(Cl)c4)c3O)cc3[nH]ccc23)CCN1` [Example 551, (R)-1-(3-chloro-5′-fluoro-2′-hydroxy-3′-(4-(3-methylpiperazin-1-yl)-1H-indol-6-yl)-[1,1′-biphenyl]-4-yl)-3-methyl-1H-imidazol-2(3H)-one], the IC50 in test [1] (setting [3]) was 0.01 to 1 nM. In test [2] (setting [4]), this compound displayed a GI50 of 0.3 to 30 nM.
As to `Cc1cc(-c2ccc(-n3ccn(C)c3=O)c(Cl)c2)c(O)c(-c2ccnc(N3CC[C@@](C)(O)C3)c2)n1` [Example 996, (R)-1-(2-chloro-4-(3-hydroxy-2′-(3-hydroxy-3-methylpyrrolidin-1-yl)-6-methyl-[2,4′-bipyridin]-4-yl)phenyl)-3-methyl-1H-imidazol-2(3H)-one], in test [1] (setting [5]), the IC50 was 1 to 10 nM. In test [2] (setting [6]), this compound registered a 50% growth inhibitory concentration (GI50) of 0.3 to 30 nM.
For `Cn1ccn(-c2ccc(-c3cc(F)cc(-c4ccnc(N5CCN(C6COC6)CC5)c4)c3O)cc2Cl)c1=O` [Example 528, 1-(3-chloro-5′-fluoro-2′-hydroxy-3′-(2-(4-(oxetan-3-yl)piperazin-1-yl)pyridin-4-yl)-[1,1′-biphenyl]-4-yl)-3-methyl-1H-imidazol-2(3H)-one], the concentration for half-maximal inhibition (IC50) in test [1] (setting [3]) was in the range of 1 to 10 nM. In test [2] (setting [4]), this compound displayed a GI50 of 0.3 to 30 nM.
As to `Cc1cc(-c2ccc(-n3ccn(C)c3=O)c(Cl)c2)c(O)c(-c2cc(N3CCN[C@H](C)C3)c3cn[nH]c3c2)c1` [Example 585, (R)-1-(3-chloro-2′-hydroxy-5′-methyl-3′-(4-(3-methylpiperazin-1-yl)-1H-indazol-6-yl)-[1,1′-biphenyl]-4-yl)-3-methyl-1H-imidazol-2(3H)-one], the IC50 in test [1] (setting [3]) was 1 to 10 nM. Besides, the GI50 in test [2] (setting [4]) lay within 0.3 to 30 nM.
`Cn1ccn(-c2ccc(-c3cc(F)cc(-c4cccc(N5CCN(C6CCC6)CC5)c4)c3O)cc2Cl)c1=O` [Example 868]: the concentration for half-maximal inhibition (IC50) in test [1] (setting [5]) was in the range of 1 to 10 nM. Also, the GI50 in test [2] (setting [6]) was 0.3 to 30 nM.
Turning to `CCC[C@@H]1CN(c2cc(-c3cc(F)cc(-c4ccc(-n5ccn(C)c5=O)c(Cl)c4)c3O)cc3[nH]ncc23)CCN1` [Example 592, (R)-1-(3-chloro-5′-fluoro-2′-hydroxy-3′-(4-(3-propylpiperazin-1-yl)-1H-indazol-6-yl)-[1,1′-biphenyl]-4-yl)-3-methyl-1H-imidazol-2(3H)-one], in test [1] (setting [3]), the IC50 was 1 to 10 nM. In addition, in test [2] (setting [4]), the GI50 lay in the range of 0.3 to 30 nM.
For the compound `CC(C)N1CCC12CCN(c1cc(-c3cc(F)cc(-c4ccc(-n5ccn(C)c5=O)c(Cl)c4)c3O)cnc1N(C)C)C2` (stereo not drawn) [Example 987, 1-(3-chloro-3′-(6-(dimethylamino)-5-(1-isopropyl-1,6-diazaspiro[3.4]octan-6-yl)pyridin-3-yl)-5′-fluoro-2′-hydroxy-[1,1′-biphenyl]-4-yl)-3-methyl-1H-imidazol-2(3H)-one], the IC50 in test [1] (setting [5]) fell in the range of 1 to 10 nM. In addition, the GI50 in test [2] (setting [6]) was 0.3 to 30 nM.
For `COCCN1CCN(c2cc(-c3cc(F)cc(-c4ccc(-n5ccn(C)c5=O)c(Cl)c4)c3O)ccn2)CC1` [Example 645, 1-(3-chloro-5′-fluoro-2′-hydroxy-3′-(2-(4-(2-methoxyethyl)piperazin-1-yl)pyridin-4-yl)-[1,1′-biphenyl]-4-yl)-3-methyl-1H-imidazol-2(3H)-one], the IC50 in test [1] (setting [3]) lay in the range of 0.01 to 1 nM. For the same compound, in test [2] (setting [4]), the GI50 lay in the range of 0.3 to 30 nM.
Regarding `CC(C)c1cc(-c2ccnc(N3CCNCC3)c2)c(O)c(-c2ccc(N3CCN(C)C3=O)c(Cl)c2)c1` [Example 315, l-(3-chloro-2′-hydroxy-5′-isopropyl-3′-(2-(piperazin-1-yl)pyridin-4-yl)-[1,1-biphenyl]-4-yl)-3-methylimidazolidin-2-one], the IC50 in test [1] (setting [3]) lay in the range of 10 to 100 nM. In addition, in test [2] (setting [4]), the GI50 fell in the range of 300 to 3000 nM.
`Cn1ccn(-c2ccc(-c3cc(F)cc(-c4ccnc(N5CCC(C)(N6CCCC6)C5)c4)c3O)cc2Cl)c1=O` (stereo not drawn) [Example 822, 1-(3-chloro-5′-fluoro-2′-hydroxy-3′-(2-(3′-methyl-[1,3′-bipyrrolidin]-1′-yl)pyridin-4-yl)-[1,1′-biphenyl]-4-yl)-3-methyl-1H-imidazol-2(3H)-one]: the IC50 in test [1] (setting [3]) lay within 1 to 10 nM. This compound came in with a 50% growth inhibitory concentration (GI50) in test [2] (setting [4]) of 0.3 to 30 nM.
Take `Cc1cc(-c2cncc(N3CCN[C@H](C)C3)c2)c(O)c(-c2ccc(-n3ccn(C)c3=O)c(F)c2)c1` [Example 545, (R)-1-(3-fluoro-2′-hydroxy-5′-methyl-3′-(5-(3-methylpiperazin-1-yl)pyridin-3-yl)-[1,1′-biphenyl]-4-yl)-3-methyl-1H-imidazol-2(3H)-one]: in test [1] (setting [3]), the IC50 was 0.01 to 1 nM. In test [2] (setting [4]), this compound gave a GI50 of 0.3 to 30 nM.
As to `COc1ncc(-c2nc(C)cc(-c3ccc(-n4ccn(C)c4=O)c(Cl)c3)c2O)cc1N1CCC2(CCCN2C(C)C)C1` (stereo not drawn) [Example 972, 1-(2-chloro-4-(3-hydroxy-5′-(1-isopropyl-1,7-diazaspiro[4.4]nonan-7-yl)-6′-methoxy-6-methyl-[2,3′-bipyridin]-4-yl)phenyl)-3-methyl-1H-imidazol-2(3H)-one], in test [1] (setting [5]), the IC50 fell in the range of 0.01 to 1 nM. In addition, in test [2] (setting [6]), the GI50 was 0.3 to 30 nM.
Take `Cn1ccn(-c2ccc(-c3cc(F)cc(-c4cncc(N5CC6CNC(C6)C5)c4)c3O)cc2Cl)c1=O` (stereo not drawn) [Example 572]: the IC50 in test [1] (setting [3]) was in the range of 0.01 to 1 nM. In test [2] (setting [4]), this compound came in with a GI50 of 0.3 to 30 nM.
For `O=C1CCCN1c1ccc(-c2cccc(-c3cccc(N4CCNCC4)c3)c2O)cc1F` [Example 173, 1-(3-fluoro-2′-hydroxy-3″-(piperazin-1-yl)-[1,1′:3′,1″-terphenyl]-4-yl)pyrrolidin-2-one], the IC50 in test [1] (setting [3]) fell in the range of 1 to 10 nM. This compound also came in with a GI50 in test [2] (setting [4]) of 300 to 3000 nM.
`COCC(C)(C)N1CCN(c2cc(-c3cc(F)cc(-c4ccc(-n5ccn(C)c5=O)c(Cl)c4)c3O)cnc2C)CC1` [Example 856]: the IC50 in test [1] (setting [5]) was 1 to 10 nM. Moreover, the GI50 in test [2] (setting [6]) is 0.3 to 30 nM.
Consider `CN1CCN(c2ccc(-c3cc(F)cc(-c4cnc(N5CCOCC5)c(N5CCNCC5)c4)c3O)cc2Cl)C1=O` [Example 415, 1-(3-chloro-5′-fluoro-2′-hydroxy-3′-(6-morpholino-5-(piperazin-1-yl)pyridin-3-yl)-[1,1′-biphenyl]-4-yl)-3-methylimidazolidin-2-one], for which the half-inhibitory concentration (IC50) in test [1] (setting [3]) was 1 to 10 nM. Also, the GI50 in test [2] (setting [4]) fell in the range of 30 to 300 nM.
For `CC(C)N1CCN(c2cccc(-c3cc(F)cc(-c4ccc(-n5ccn(C)c5=O)c(Cl)c4)c3O)c2)CC1` [Example 699, 1-(3-chloro-5′-fluoro-2′-hydroxy-3″-(4-isopropylpiperazin-1-yl)-[1,1′:3′,1″-terphenyl]-4-yl)-3-methyl-1H-imidazol-2(3H)-one] the same measures were 0.01 to 1 nM and 0.3 to 30 nM.
In the case of `Cn1ccn(-c2ccc(-c3cc(Cl)cc(-c4cccc(N5CCN(C(C)(C)C)CC5)c4)c3O)cc2Cl)c1=O` [Example 1024, 1-(3″-(4-(tert-butyl)piperazin-1-yl)-3,5′-dichloro-2′-hydroxy-[1,1′:3′,1″-terphenyl]-4-yl)-3-methyl-1H-imidazol-2(3H)-one], the IC50 in test [1] (setting [5]) fell in the range of 1 to 10 nM. The same compound yielded a GI50 in test [2] (setting [6]) of 0.3 to 30 nM.
Take `COc1ncc(-c2nc(C)cc(-c3ccc(-n4ccn(C)c4=O)c(F)c3)c2O)cc1N1CCN(C(C)(C)C)CC1` [Example 997, 1-(4-(5′-(4-(tert-butyl)piperazin-1-yl)-3-hydroxy-6′-methoxy-6-methyl-[2,3′-bipyridin]-4-yl)-2-fluorophenyl)-3-methyl-1H-imidazol-2(3H)-one]: in test [1] (setting [5]), the IC50 lay in the range of 1 to 10 nM. This compound displayed a GI50 in test [2] (setting [6]) of 0.3 to 30 nM.
Consider `CNc1ncc(-c2nc(C)cc(-c3ccc(-n4ccn(C)c4=O)c(Cl)c3)c2O)cc1N1CCC2(CCN2C(C)C)C1` (stereo not drawn) [Example 980, 1-(2-chloro-4-(3-hydroxy-5′-(1-isopropyl-1,6-diazaspiro[3.4]octan-6-yl)-6-methyl-6′-(methylamino)-[2,3′-bipyridin]-4-yl)phenyl)-3-methyl-1H-imidazol-2(3H)-one], for which, in test [1] (setting [5]), the IC50 fell in the range of 1 to 10 nM. In test [2] (setting [6]), this compound showed a GI50 of 0.3 to 30 nM.
Take `Cc1nc(-c2cc(F)cc(-c3cccc(N4CCN(C(C)(C)C)CC4)c3)c2O)ccc1-n1ccn(C)c1=O` [Example 936, 1-(6-(3′-(4-(tert-butyl)piperazin-1-yl)-5-fluoro-2-hydroxy-[1,1′-biphenyl]-3-yl)-2-methylpyridin-3-yl)-3-methyl-1H-imidazol-2(3H)-one]: in test [1] (setting [5]), the IC50 is > 100 nM. This compound displayed a GI50 in test [2] (setting [6]) of 300 to 3000 nM.
In the case of `Cn1ccn(-c2ccc(-c3cc(F)cc(-c4cc(F)cc(N5CCNCC5)c4)c3O)cc2Cl)c1=O` [Example 706, 1-(3-chloro-3″,5′-difluoro-2′-hydroxy-5″-(piperazin-1-yl)-[1,1′:3,1″-terphenyl]-4-yl)-3-methyl-1H-imidazol-2(3H)-one], in test [1] (setting [3]), the IC50 lay within 0.01 to 1 nM. In test [2] (setting [4]), the GI50 lay within 0.3 to 30 nM.
With `C[C@@H]1CN(c2cncc(-c3cccc(-c4ccc(N5CCCC5=O)c(Cl)c4)c3O)c2)CCN1` [Example 265, (R)-1-(3-chloro-2′-hydroxy-3′-(5-(3-methylpiperazin-1-yl)pyridin-3-yl)-[1,1'-biphenyl]-4-yl)pyrrolidin-2-one], in test [1] (setting [3]), the concentration for half-maximal inhibition (IC50) was in the range of 1 to 10 nM. Further, the GI50 in test [2] (setting [4]) lay in the range of 30 to 300 nM.

Source of the values: US20250179059A1 (The Regents of the University of California, priority 2021, published 2025).
